Measurements taken from patent US10201559B2, “Compositions of selenoorganic compounds and methods of use thereof” (Alltech, Inc., priority 2014, dated 2019).
“Also recorded” adds a separate entry of the source.

Columns and labels:
[1] = test system: C2C12 cells; test: Quantitative analysis of mitochondrial potential in C2C12 cells; format: cell-based, mouse; details: for MT potential: 24 hr, compared to control
Procedure: For C2C12 cells, equal number of cells (1×10^4) were seeded on Corning 96-well clear-bottom and dark-wall cell culture plates (VWR), cultured in 10% FBS DMEM media for 24 hr., and then treated with vehicle (sterilized water), compound C and D and their sulfur analogs for 24 and 48 hrs. These vehicle- or compound-treated cells were rinsed twice with PBS, incubated with Mitotracker Orange fluorescence dye at 37° C. for 30 min, and then replaced with PBS. Mitotracker Orange fluorescence intensities (mitochondrial potential) in these living cells were determined by a Bio-TeK Synergy HT Multi-Mode Fluorescence Microplate Reader (Winooski, Vt.). Eight samples per each treatment were examined for the above analysis, and data are presented as mean±sem of eight samples.

[2] = test system: HEK293T cells; test: Fluorescence analysis of mitochondrial potential in HEK293T cells; format: cell-based, human; details: for MT potential (Mitotracker Orange fluorescence): 4.5 hr; for MT potential / mitochondrial activity in kidney cells: dose not stated
Procedure: HEK293T cells were cultured in 8-chamber glass slides (1×10^4 cells/chamber) for 24 hours, and then treated with various concentrations of compounds or its respective sulfur analogs (dissolved in sterilized water) for 4.5 hr. These compound-treated cells were rinsed twice with PBS, and incubated with Mitotracker Orange Fluorescence Dye (Invitrogen) at 37° C. for 30 min, and then replaced with fresh PBS according to the Manufacturer's protocol. Then fluorescent signals (mitochondrial potential) in these living cells were recorded using a Zeiss Axio Vert.A1 fluorescence microscope (Thornwood, N.Y.). At least three samples in each treatment group were analyzed under the fluorescent microscope.

[3] = test system: pElf2be; test: Western blot, pElf2be S539 in AML-12 cells; format: cell-based, mouse; details: for increased phosphorylation of Elf2be: individual compounds, 6 or 24 hr
Procedure: (§1) IMR-32 and AML12 cells were seeded on 6-well plates, and then treated with vehicle and various compounds for 6 and 24 hr, as described above. After treatments, cells were rinsed with ice-cold PBS, and lysed in the ice-cold RIPA buffer containing complete proteinase and phosphotase inhibitors (Themo-Fisher Scientific, Waltham, Mass.) on ice for 30 min. Cell lysates were collected using a cell scraper and transfer pipette, and then centrifuged at 12000 g for 30 min at 4° C. to remove the DNA pellet and obtain the protein extract. Protein levels in the supernatant of these cell lysates were determined using the Pierce Micro-BCA protein assay kit (Themo Scientific-Piece Biotechnology, Rockford, Ill.) according to the manufacturer's protocol.
(§2) For Western blot analysis, five micrograms of total proteins from vehicle- and compound(s)-treated cells were subjected to SDS-PAGE gel separation, and then transferred to PVDF membranes, as described previously (Reddy, Liu et al. 2008 Science). Membranes were blocked in a phosphate-buffered saline (PBS) containing 5% (w/v) of bovine serum albumin (Sigma, St. Louis, Mo.), and incubated with specific primary antibodies followed by the incubation with HRP-conjugated anti-mouse or anti-rabbit secondary antibodies (1:5000 dilution, Cell Signaling Inc.). All primary antibodies except G6PC (Santa Cruz), Actb (Li-COR, Lincoln, Nebr.), Elf2bε and pElf2bε (Abcam, Cambridge, Mass.) were purchased from Cell Signaling Inc. Positive signals on the membrane blots were detected using the Amersham's enhanced chemiluminescence Western Blotting Prime Detection reagents (GE healthcare Lifescience, Pittsburgh, Pa.). Images of these luminescence signals on the membrane blots were captured using the LI-COR Odyssey Fc Image system (Lincoln, Nebr.). The same membrane blot was striped and re-blotted with another antibody as described in the GE WB ECL-prime-detection protocol (GE healthcare Lifescience, Pittsburgh, Pa.). Protein band densities in the Western blots were determined using the Li-COR Image studio software or NIH ImageJ software, and then normalized by Actb level in each sample. Data are presented as mean±sem of three samples per each group.

[4] = test system: pAKT; test: Western blot, pAKT in IMR-32 cells; format: cell-based, human; details: 150 ppb
Procedure: as §1
as §2, with “The same membrane blot was striped and re-blotted with another antibody as described in the GE WB ECL-prime-detection protocol (GE healthcare Lifescience, Pittsburgh, Pa.).” left out, “Data are presented as mean±sem of three samples per each group.” left out

[5] = test system: AML-12 cells; test: Quantitative analysis of mitochondrial potential in AML-12 cells; format: cell-based, mouse; details: 150 ppb (of each compound), 6 and 24 hr
Procedure: For AML-12 liver cells, cells were amplified in 10% FBS Dulbecco's modified Eagle's medium and Ham's F12 medium (1:1) (DMEM/F12) media supplemented with 1× Insulin/Transferin/Selenium (ITS, Sigma). Then equal number of cells (1×10^4 cells/well) were seeded on Corning 96-well clear-bottom and dark-wall cell culture plates (VWR, Radnor, Pa.), cultured in ITS-free 10% FBS DMEM/F12 media for 24 hr., and then subjected to the treatments of various compounds or combination of compounds for 6, 24, and 48 hr. Mitochondrial potential in living cells was determined by quantitative analysis of fluorescence intensities using the Mitotracker orange dye as described above. In addition, the above treated cells were also incubated with Hoechst 33342 dye (Invitrogen, Grand Island, N.Y.) to stain cell nuclei according to the Manufacturer's protocol. The fluorescent intensities of stained cell nuclei by Hoechst 33342 dye were also determined by the fluorescence microplate reader. The mitochondrial potential per cell in living cells was obtained by normalizing the fluorescence intensities of Mitotracker orange dye to the fluorescence intensities of Hoechst 33342 dye in each well. Eight samples per each treatment were examined for the above analysis and data are presented as mean±sem of eight samples.

[6] = test system: rat brain cortex mitochondria; test: OCR of calcium-stressed rat brain cortex mitochondria (SeaHorse); format: biochemical; details: calcium (10 μM) and 150 ppb compound; control 1,677, calcium alone 1,066
Procedure: The following example describes an experiment performed in the SeaHorse external flux analyzer; an instrument for measuring the respiration rate of mitochondria expressed as the oxygen consumption rate, or OCR. The experiment in question used mitochondria from the brain cortex of normal rats, maintained on normal laboratory chow which had not been fortified with any additional selenium sources.
An identical sample of the same mitochondrial preparation was treated in exactly the same manner as the control sample except that calcium (10 micromolar final concentration) was added to stress or damage the mitochondria by depolarizing them. As shown (bottom line) the OCR dropped from a value of 1,677 to 1,066 pMoles/min O2.
Again, identical samples of rat brain cortex mitochondria were incubated as above except that they contained calcium (10 μM) and 150 ppb of compounds D and E, respectively. C was not tested. It is evident that the OCR of the compound-treated, calcium-stressed mitochondria were restored to near control levels, i.e. 1,564 pMoles/min O2 in the case of compound D and 1,531 pMoles/min O2 in the case of compound E.

[7] = test system: pTau S396; test: Western blot, pTau S396 in IMR-32 cells; format: cell-based, human; details: 150 ppb, 24 hr
Procedure: as §1
For Western blot analysis, five micrograms of total proteins from vehicle- and compound(s)-treated cells were subjected to SDS-PAGE gel separation, and then transferred to PVDF membranes, as described previously (Reddy, Liu et al. 2008 Science). […] All primary antibodies except G6PC (Santa Cruz), Actb (Li-COR, Lincoln, Nebr.), Elf2bε and pElf2bε (Abcam, Cambridge, Mass.) were purchased from Cell Signaling Inc. Positive signals on the membrane blots were detected using the Amersham's enhanced chemiluminescence Western Blotting Prime Detection reagents (GE healthcare Lifescience, Pittsburgh, Pa.). […]

C[Se]C[C@H]1O[C@@H](n2cnc3c(N)ncnc32)C(O)C1O (stereo in doubt) [compound C, 5′-Methylselenoadenosine]
MT potential [1]: significantly enhanced MT potential | MT potential (Mitotracker Orange fluorescence) ([2]; 37.5 ppb): enhanced MT potential | MT potential (Mitotracker Orange fluorescence) ([2]; 75 ppb): less effects on MT potential | MT potential / mitochondrial activity in kidney cells [2]: enhanced MT potential | increased phosphorylation of Elf2be [3]: did not observed the increased phosphorylation | pAKT protein levels [4]: not visibly decreased | MT potential [5]: did not significantly affect MT potential

Nc1ncnc2c1ncn2[C@@H]1O[C@H](C[Se]CC[C@@H](N)C(=O)O)C(O)C1O (some centres unmarked) [compound D, 5′-Selenoadenosyl homocysteine]
MT potential [1]: significantly enhanced MT potential | potency on MT potential relative to compound C ([1]; lower doses (37.5 and 75 ppb)): more potent than compound C | stimulation of mitochondrial activity over control levels ([1]; most effective dose): two-fold over control levels; also recorded: two-fold stimulation of mitochondrial activity | MT potential (Mitotracker Orange fluorescence) ([2]; all tested doses (37.5 and 75 ppb)): did not affect MT potential | MT potential / mitochondrial activity in kidney cells [2]: ineffective | OCR (oxygen consumption rate) [6]: 1,564 pMoles/min O2 | increased phosphorylation of Elf2be [3]: did not observed the increased phosphorylation | phosphorylation of Tau at S396 [7]: had no effect on Tau phosphorylation at all tested serine/threonine residues | pAKT protein levels [4]: not visibly decreased | MT potential [5]: did not significantly affect MT potential

C[Se]CC(NC(=O)CCC(N)C(=O)O)C(=O)O (centres unmarked) [compound E, gamma-glutamyl-methylseleno-cysteine]
OCR (oxygen consumption rate) [6]: 1,531 pMoles/min O2 | levels of pElf2bε S539 ([3]; individual compound, 6 hr): slightly reduce | increased phosphorylation of Elf2be [3]: did not observed the increased phosphorylation | phosphorylation of Tau at S396 [7]: significantly down-regulated | pAKT protein levels [4]: not visibly decreased | MT potential [5]: did not significantly affect MT potential
